In patent US20240269150A1, “WOUND TREATMENT COMPOSITION” (CS MEDICA A/S, priority 2021, published 2024):

Assay: Comparison of compositions formulated with different crystalline CBDs
Format: in vivo
Settings: compositions per Example 1 (formulation A or B) differing only in the crystalline CBD used
Excerpt: In some embodiments, CBD of crystal structure A (or capable of forming needle-like crystals) is at least 1.2, 1.5, 2, 3, 4, 5, 7.5, 10, 15 or 20 times more “potent” on a weight/weight basis than CBD of crystal structure B (or capable of forming cluster/bunch-like crystals). Often, the “A-type” CBD is at least 2.5, 5, 7.5, or 10 times more “potent” on a weight/weight basis than “B-type” CBD. The “potency” of “type A” CBD can e.g. be determined in measuring the time needed for wound and/or soar healing using essentially identical compositions with the exception of the type of CBD used. Alternatively, the potency can be determined in the quantity of CBD needed to provide the same effect, such as wound and/or sore healing time.
Two compositions are prepared according to Example 1, e.g. formulation A or B, the only difference being that the crystalline CBD used in the formulation is either of type A (needle-like crystals; FIG. 1) or type B (bunch/cluster-like; FIG. 2).
Type A crystalline CBD is sourced from Enecta, while type B CBD is sourced from Pharma Hemp.

## C=C(C)[C@@H]1CCC(C)=C[C@H]1c1c(O)cc(CCCCC)cc1O [type A CBD, cannabidiol]
  Activity / potency of type A CBD relative to type B CBD: significantly more active than type B CBD
Listed as CBD with a needle-like crystal structure
  Activity / potency of type A CBD relative to type B CBD: significantly more potent
